Experimental findings from PubChem BioAssay (NCI) are described below.

Values joined by “and” are separate entries in the source; they are usually repeats but may differ in a detail not shown here. Equal values may be shown once.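 The compound was tested at five concentrations on cells cultured in 96-well plates, with a 48-hour exposure period. GI50 marks 50% less growth. At the TGI there is no net growth.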

Common to all, as to assay: growth of human tumour cells (NCI), 48 h
The subject of assay [1] is CAKI-1 renal.
Assay [2] relates to MCF7 breast.
Assay [3] has as its system SF-295 CNS.
Assay [4] deals with HOP-92 NSCLC.
Assay [5] relates to 786-0 renal.
For assay [6], the system named is A498 renal.
Assay [7] relates to T-47D breast.
Assay [8] concerns HCT-15 colon.
Assay [9] concerns SK-MEL-5 melanoma.
Assay [10] deals with SNB-75 CNS.

For `N#Cc1c(NC(=O)CN2CCOCC2)sc2c1CCCC2`, the GI50 in assay [1] was more than 25 µM; in assay [2], more than 25 µM; in assay [3], more than 25 µM; in assay [4], more than 25 µM; in [5], more than 25 µM; in assay [6], 3.2 µM. In addition, the GI50 in assay [7], in assay [8], in assay [9] and in [10] was more than 25 µM each time. The TGI in assay [1], in assay [2], in assay [3], in assay [4], in assay [5] and in [6] was more than 25 µM each time. Moreover, the TGI in assay [7], in [8], in [9] and in assay [10] was more than 25 µM in each case.
For the compound `CNc1ccc(-c2cc(=O)oc3ccc(Cl)cc23)cc1`, the TGI in assay [1] is more than 100 µM; in assay [2], more than 100 µM; in assay [3] it was more than 100 µM; in assay [4], 7.96 µM; in assay [5], more than 100 µM; in assay [9] it was 1.11 µM and 2.56 µM. For the same compound, the GI50 in assay [2] is 0.229 µM and 0.151 µM; in assay [3], 0.0479 µM and 0.0322 µM; in [5], 0.133 µM and 0.0442 µM; in assay [6], 0.0811 µM and 0.0598 µM; in assay [8], 0.0421 µM; in assay [9], 0.121 µM and 0.0772 µM.
On to `C=C(C)[C@@H]1CCC2=C[C@@H](OC2=O)[C@@H](C(=C)C)C(=O)/C=C(/C)C(=O)C1`, for which the GI50 in assay [1] was 25.4 µM; in assay [2], 35.3 µM; in assay [3], 35.9 µM; in assay [4] it was 17.4 µM; in assay [5] it was 35.5 µM; in [6] it was 26.7 µM. Moreover, the GI50 in assay [7] is 51.1 µM; in assay [8] it was 24.1 µM; in [9] it was 18.6 µM; in assay [10], more than 100 µM. Also, the TGI in assay [1] was 60.9 µM; in assay [2] it was more than 100 µM; in assay [3] it was more than 100 µM; in [4] it was 58.2 µM; in assay [5], more than 100 µM; in assay [6], 69.6 µM. The TGI in assay [7] is more than 100 µM; in [8], 69.7 µM; in [9], 39.4 µM; in [10], more than 100 µM.
For `Cc1ccccc1N=Nc1c(O)[nH]c2ccccc12`, the TGI in [1], in assay [2], in assay [3], in assay [5], in assay [7] and in [8] was more than 100 µM throughout. Besides, the TGI in assay [9] and in [10] was more than 100 µM each time.
For `N#Cc1c(-c2ccccc2)cc(-c2ccccc2)n(CCCCC(=O)NO)c1=O`, the GI50 was 1.61 µM in assay [1]; 1.79 µM in assay [2]; 2.13 µM in assay [3]; 2.23 µM in [4]; 2.83 µM in assay [5]; 1.25 µM in [6]. The GI50 is 1.93 µM in assay [7], 0.57 µM in [8], 1.84 µM in assay [9] and 1.61 µM in [10]. In addition, the TGI was determined as 3.9 µM in [1]; 11 µM in assay [2]; 4.56 µM in [3]; 7.57 µM in assay [4]; 9.13 µM in assay [5]; 3.55 µM in assay [6]. Besides, the TGI is 7.99 µM in assay [7], 13.6 µM in assay [8], 3.59 µM in assay [9] and 9.07 µM in [10].
In the case of `CCOC(=O)C1=C(C)NC(=O)NC1c1coc2cc(C)cc(C)c2c1=O` (stereo unspecified), the TGI in assay [1], in assay [2], in [3], in assay [4], in [5] and in assay [6] was more than 100 µM each time. The TGI in assay [7], in [8], in assay [9] and in assay [10] was more than 100 µM throughout.
As to `O=C(CCCc1ccccn1)c1ccccc1`, the TGI in assay [1], in assay [2], in [3], in [4], in [5] and in assay [6] was more than 100 µM throughout. Besides, the TGI in assay [7], in assay [8], in assay [9] and in assay [10] was more than 100 µM each time.
With `COc1ccc(-c2cc(/C=C3\C(=O)Nc4ccc(OC)cc43)[nH]n2)cc1`, the GI50 was more than 100 µM in [1]; 0.732 µM in assay [2]; 2.89 µM in assay [3]; more than 100 µM in assay [4]; more than 100 µM in assay [5]; more than 100 µM in assay [7]. Further, the GI50 in [8] is 0.687 µM; in [9], 4.46 µM; in [10], 3.19 µM. Moreover, the TGI in [1], in [2], in [3], in assay [4], in [5] and in assay [7] was more than 100 µM throughout. Also, the TGI in [8] was more than 100 µM; in assay [9], more than 100 µM; in [10] it was 25.5 µM.
On to `CN1c2ccccc2S(=O)(=O)n2c(COc3ccc(Cl)cc3)nnc21`, for which the TGI is more than 100 µM in assay [1]; more than 100 µM in assay [2]; 92.7 µM in assay [3]; 63.2 µM in [4]; more than 100 µM in assay [5]; more than 100 µM in assay [6]. The TGI in assay [7], in assay [8] and in assay [9] was more than 100 µM in each case.
On to `CC1(C)CC2C=C(C=O)C3(C=O)CC3(C)C2C1` (stereo unspecified), for which the TGI in [1] amounted to 4.26 µM; in assay [2], 5.27 µM; in [3], 18.8 µM; in assay [4], 3.97 µM; in assay [5], 3.13 µM; in [7] it was 9.02 µM. Moreover, the TGI was 3.94 µM in [8], 3.51 µM in assay [9] and 7.56 µM in assay [10].
